# Data from article PMC8151276, “An Integrated Approach toward NanoBRET Tracers for Analysis of GPCR Ligand Engagement” (Molecules, 2021).
# Legend:
# [1] = molecular target: T1, CCR6 (Homo sapiens, UniProt P51684); experiment: NanoBRET screen HiBiT-CCR6 in HEK293; format: binding
# T1 construct: purchased Promega (in-house HiBiT-GPCR construct library, NanoBRET)
# T1 sequence (P51684 1-374): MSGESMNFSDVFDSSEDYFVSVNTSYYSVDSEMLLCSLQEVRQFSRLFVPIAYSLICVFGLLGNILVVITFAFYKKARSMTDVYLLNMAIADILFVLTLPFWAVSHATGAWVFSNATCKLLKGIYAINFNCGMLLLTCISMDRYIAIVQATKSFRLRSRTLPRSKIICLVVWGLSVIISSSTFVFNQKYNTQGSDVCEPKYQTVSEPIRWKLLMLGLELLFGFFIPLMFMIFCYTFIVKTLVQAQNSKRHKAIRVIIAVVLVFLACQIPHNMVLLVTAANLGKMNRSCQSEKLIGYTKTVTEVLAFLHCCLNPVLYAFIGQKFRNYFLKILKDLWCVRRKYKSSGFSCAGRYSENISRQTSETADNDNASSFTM
# Protocol: (§1) Each tracer candidate was screened across the entire library of HiBiT-GPCR constructs using NanoBRET as the detection modality. As depicted in Figure 4A, the specificity of interactions was evaluated through decrease in BRET due to competitive displacement of a bound tracer by excess parental compound. Each tracer was analyzed for binding to each HiBiT-GPCR fusion in the absence and in the presence of competing parental compound. Briefly, HEK293 cells were transfected with HiBiT-GPCR constructs diluted into promoterless DNA to reduce expression and maximize translocation to the cell surface. Each tracer candidate was then screened at concentrations of 1 μM and 0.1 μM across cells expressing these fusions. Cells were treated for 1.5 h with tracer either alone or in the presence of 20 μM competing parental compound (i.e., control). BRET was measured upon addition of purified LgBiT and subsequent complementation with HiBiT genetically fused to a GPCR. The specificity of interactions was assessed through a decrease in BRET signal due to competitive displacement of the bound tracer. To further gauge the robustness of these interactions, the fold response over the control (i.e., BRETtracer/BRETcontrol) was calculated. We chose a 1.5-fold response, which translates to ≥7-fold signal over noise as the minimal threshold required to score an interaction as positive. […]. Below we highlight the screening results obtained for our exemplary fluorescent tracers based on Clozapine, Amitriptyline and AZD1283.
# (§2) HiBiT-GPCR DNA constructs were diluted in 10 mM Tris pH 8 to a final concentration of 0.01 μg/μL, arrayed in 96-well plates and stored at −20 °C. For transfection, HEK293 cells were suspended in Opti-MEM (without phenol red) supplemented with 2% fetal bovine serum (Seradigm) and 100 units/mL penicillin–streptomycin (Gibco) at a final concentration of 220,000 cells/mL and dispensed into white 96-well plates at 90 μL/well. Subsequent transfections and screens were carried using an Agilent Bravo Automated Liquid Handling Platform. First, the 96-well HiBiT DNA arrays were diluted 25-fold in Opti-MEM (without serum or phenol red) to a final concentration of 0.0004 μg/μL and 20 μL of the diluted DNAs were transferred into new 96-well plates. Next, promoterless carrier DNA (1 μg/μL) was diluted 25-fold (0.04 μg/μL) and then dispensed into the diluted arrays at 20 μL/well. Following brief mixing, Viafect transfection reagent (Promega) diluted 16-fold into Opti-MEM was dispensed into the plates at 40 μL/well. After mixing by pipetting, plates were incubated for 10 min on the pipetting station deck. The DNA-transfection reagent complexes were then added to plates containing cells. To facilitate the screen, 10 μL of DNA-transfection reagent complexes were added in duplicates to the top 4 and bottom 4 rows, resulting in two identical 48-well arrays per plate. Plates with transfected cells were incubated for 18–20 h at 37 °C/5% CO2. A screen of each tracer across the entire library using two different concentrations requires duplicate plates of transfected cells. Depending on the number of tracers being screened, transfections can be scaled up using the same ratios. The next day, for each tracer, four 20× screening solutions in tracer dilution buffer (Promega) were prepared: two duplicates at final concentration of 20 μM and two duplicates at a final concentration of 2 μM. A competing unmodified compound was added to one of each duplicate at a final concentration of 400 μM. The four resulting solutions were diluted 4-fold in Opti-MEM without serum or phenol red to generate 5× solutions (5 µM and 0.5 µM tracer +/− 100 μM competing compound). To screen the library, a BioTek MultiFlo FX liquid dispenser was used to dispense 22.5 µL of tracer solution to the top 4 rows and 22.5 µL tracer + competing compound solution to the 4 bottom rows. Plates were briefly mixed on an orbital shaker and incubated for 1.5 h at room temperature. […]
# [2] = molecular target: T2, PTGDR2 (Homo sapiens, UniProt Q9Y5Y4); experiment: NanoBRET screen HiBiT-PTGDR2 in HEK293; format: binding
# T2 construct: purchased Promega (in-house HiBiT-GPCR construct library, NanoBRET)
# T2 sequence (Q9Y5Y4 1-395): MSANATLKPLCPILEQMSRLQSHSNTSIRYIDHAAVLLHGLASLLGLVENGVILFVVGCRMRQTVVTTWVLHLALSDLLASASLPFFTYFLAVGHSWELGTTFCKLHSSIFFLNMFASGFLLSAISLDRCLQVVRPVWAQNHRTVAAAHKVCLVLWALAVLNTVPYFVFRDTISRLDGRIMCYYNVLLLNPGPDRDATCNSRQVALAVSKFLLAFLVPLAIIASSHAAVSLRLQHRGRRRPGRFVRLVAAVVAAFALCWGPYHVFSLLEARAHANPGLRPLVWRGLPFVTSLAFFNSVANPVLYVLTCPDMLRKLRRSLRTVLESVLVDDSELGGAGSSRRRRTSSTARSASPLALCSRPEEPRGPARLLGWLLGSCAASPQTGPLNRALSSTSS
# Protocol: as §1, §2
compound,measurement,setting,value
CCOC(=O)c1cc(C#N)c(N2CCC(C(=O)NS(=O)(=O)Cc3ccccc3/C=C/C(=O)NCCNC(=O)CCc3ccc4n3[B-](F)(F)[N+]3=C(c5ccc[nH]5)C=CC3=C4)CC2)nc1C [AZD1283-1-NB590],NanoBRET Fold Response,"[1]; CCR6, 0.1μM",1.06
same,NanoBRET Fold Response,"[1]; CCR6, 1μM",1.08
same,NanoBRET Fold Response,"[2]; PTGDR2, 0.1μM",1.07
same,NanoBRET Fold Response,"[2]; PTGDR2, 1μM",1.03
N#CN=C(NCCCOc1cccc(CN2CCCCC2)c1)NCCNC(=O)CCOCCOCCOCCOCCNC(=O)CCc1ccc2n1[B-](F)(F)[N+]1=C(c3ccc[nH]3)C=CC1=C2 [Aminopotentidine-2-NB590],NanoBRET Fold Response,"[1]; CCR6, tracer 0.1μM",0.96
same,NanoBRET Fold Response,"[1]; CCR6, tracer 1μM",1.00
same,NanoBRET Fold Response,"[2]; PTGDR2, tracer 0.1μM",0.98
same,NanoBRET Fold Response,"[2]; PTGDR2, tracer 1μM",0.48
CN(C)CCC=C1c2ccccc2CCc2ccc(C(=O)NCCNC(=O)CCOCCOCCOCCOCCNC(=O)CCc3ccc4n3[B-](F)(F)[N+]3=C(c5ccc[nH]5)C=CC3=C4)cc21 [Amitriptyline-a-2-NB590],NanoBRET Fold Response,[1]; tracer at 0.1μM,0.96
same,NanoBRET Fold Response,[1]; tracer at 1μM,0.94
CN(C)CCC=C1c2ccccc2CCc2ccc(C(=O)NCCNC(=O)CCOCCOCCOCCOCCNC(=O)CCc3ccc4n3[B-](F)(F)[N+]3=C(c5ccc[nH]5)C=CC3=C4)cc21 [Amitriptyline-b-2-NB590],NanoBRET Fold Response,"[1]; tracer at 0.1μM, listed as amitriptyline-b-2-NB590",1.01
same,NanoBRET Fold Response,"[1]; tracer at 1μM, listed as amitriptyline-b-2-NB590",1.01
same,NanoBRET Fold Response,[2]; tracer at 0.1μM,1.00
same,NanoBRET Fold Response,[2]; tracer at 1μM,1.00
CN(CCC=C1c2ccccc2CCc2ccccc21)C(=O)CCOCCOCCOCCOCCNC(=O)CCc1ccc2n1[B-](F)(F)[N+]1=C(c3ccc[nH]3)C=CC1=C2 [Amitriptyline-e-2-NB590],NanoBRET Fold Response,[1]; tracer at 1μM,1.00
COc1ccc2c(n1)c(CCNC(C)=O)cn2CCNC(=O)CCc1ccc2n1[B-](F)(F)[N+]1=C(c3ccc[nH]3)C=CC1=C2 [Azamelatonin-1-NB590],NanoBRET Fold Response,[1]; 0.1μM tracer,0.86
same,NanoBRET Fold Response,[1]; 1μM tracer,0.98
same,NanoBRET Fold Response,[2]; 0.1μM tracer,1.08
same,NanoBRET Fold Response,[2]; 1μM tracer,1.09
COc1ccc2[nH]c(-c3ccc(CNC(=O)CCOCCOCCOCCOCCNC(=O)CCc4ccc5n4[B-](F)(F)[N+]4=C(c6ccc[nH]6)C=CC4=C5)cc3)c(CCNC(C)=O)c2n1 [AzomelatoninICO9-2-NB590],NanoBRET Fold Response,[1]; 0.1μM tracer,0.85
same,NanoBRET Fold Response,[1]; 1μM tracer,1.20
same,NanoBRET Fold Response,[2]; 0.1μM tracer,1.06
same,NanoBRET Fold Response,[2]; 1μM tracer,1.12
O=C(CCOCCOCCOCCOCCNC(=O)CCc1ccc2n1[B-](F)(F)[N+]1=C(c3ccc[nH]3)C=CC1=C2)NCCCN1CCN(C2=Nc3cc(Cl)ccc3Nc3ccccc32)CC1 [Clozapine-a-2-NB590],NanoBRET Fold Response,"[1]; CCR6, 0.1μM tracer",1.05
same,NanoBRET Fold Response,"[1]; CCR6, 1μM tracer",0.97
same,NanoBRET Fold Response,"[2]; PTGDR2, 0.1μM tracer",1.01
same,NanoBRET Fold Response,"[2]; PTGDR2, 1μM tracer",1.00
CN1CCN(C2=Nc3cc(Cl)ccc3Nc3ccc(CNC(=O)CCOCCOCCOCCOCCNC(=O)CCc4ccc5n4[B-](F)(F)[N+]4=C(c6ccc[nH]6)C=CC4=C5)cc32)CC1 [Clozapine-b-2-NB590],NanoBRET Fold Response,"[1]; CCR6, 0.1μM tracer",1.03
same,NanoBRET Fold Response,"[1]; CCR6, 1μM tracer",0.97
same,NanoBRET Fold Response,"[2]; PTGDR2, 0.1μM tracer",1.01
same,NanoBRET Fold Response,"[2]; PTGDR2, 1μM tracer",1.02
